# Results: ChEMBL document CHEMBL5352506, “The Zinc-Binding Group Effect: Lessons from Non-Hydroxamic Acid Vorinostat Analogs” (J Med Chem, 2023)
# Key:
# [1] = target: Histone deacetylase (HDAC1 and HDAC2) (Homo sapiens, UniProt Q13547+Q92769); test: Inhibition of HDAC1/2 in human K562 nuclear extraction; format: cell-free
# [2] = target: T1, Polyamine deacetylase HDAC10 (Homo sapiens, UniProt Q969S8); test: Inhibition of human recombinant HDAC10
# T1 sequence (Q969S8 whole entry): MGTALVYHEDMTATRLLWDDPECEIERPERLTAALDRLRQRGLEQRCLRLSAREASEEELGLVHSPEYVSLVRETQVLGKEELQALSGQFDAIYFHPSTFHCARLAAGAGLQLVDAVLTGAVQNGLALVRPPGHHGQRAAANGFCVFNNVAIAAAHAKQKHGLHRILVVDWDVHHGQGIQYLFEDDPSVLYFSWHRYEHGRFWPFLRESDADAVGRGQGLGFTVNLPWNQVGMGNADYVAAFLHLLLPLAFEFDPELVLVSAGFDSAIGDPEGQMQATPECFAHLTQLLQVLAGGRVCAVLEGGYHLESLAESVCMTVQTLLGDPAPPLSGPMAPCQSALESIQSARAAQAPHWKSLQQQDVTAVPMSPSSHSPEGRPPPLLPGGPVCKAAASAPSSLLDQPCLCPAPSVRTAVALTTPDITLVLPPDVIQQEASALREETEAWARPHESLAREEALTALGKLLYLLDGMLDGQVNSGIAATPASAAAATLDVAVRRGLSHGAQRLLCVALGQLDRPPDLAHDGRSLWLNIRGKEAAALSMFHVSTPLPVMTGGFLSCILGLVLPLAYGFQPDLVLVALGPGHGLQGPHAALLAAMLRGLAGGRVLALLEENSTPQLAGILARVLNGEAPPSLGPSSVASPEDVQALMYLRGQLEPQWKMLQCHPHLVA
# [3] = target: Histone deacetylase 9 (Homo sapiens, UniProt Q9UKV0); test: Inhibition of human recombinant HDAC9
# [4] = target: T2, Histone deacetylase 8 (Homo sapiens, UniProt Q9BY41); test: Inhibition of human recombinant HDAC8
# T2 sequence (Q9BY41 whole entry): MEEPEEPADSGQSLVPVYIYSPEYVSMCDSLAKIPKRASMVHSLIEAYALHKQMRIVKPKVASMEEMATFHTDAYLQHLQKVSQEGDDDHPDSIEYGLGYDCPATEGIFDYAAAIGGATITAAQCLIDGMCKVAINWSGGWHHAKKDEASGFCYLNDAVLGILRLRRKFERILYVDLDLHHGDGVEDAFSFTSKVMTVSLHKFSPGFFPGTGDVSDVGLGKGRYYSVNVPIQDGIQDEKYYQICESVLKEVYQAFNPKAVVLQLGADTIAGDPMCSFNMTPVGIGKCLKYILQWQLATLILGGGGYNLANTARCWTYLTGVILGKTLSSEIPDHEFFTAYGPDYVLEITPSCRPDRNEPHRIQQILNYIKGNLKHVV
# [5] = target: T3, Protein deacetylase HDAC6 (Homo sapiens, UniProt Q9UBN7); test: Inhibition of human recombinant HDAC6
# T3 sequence (Q9UBN7 whole entry): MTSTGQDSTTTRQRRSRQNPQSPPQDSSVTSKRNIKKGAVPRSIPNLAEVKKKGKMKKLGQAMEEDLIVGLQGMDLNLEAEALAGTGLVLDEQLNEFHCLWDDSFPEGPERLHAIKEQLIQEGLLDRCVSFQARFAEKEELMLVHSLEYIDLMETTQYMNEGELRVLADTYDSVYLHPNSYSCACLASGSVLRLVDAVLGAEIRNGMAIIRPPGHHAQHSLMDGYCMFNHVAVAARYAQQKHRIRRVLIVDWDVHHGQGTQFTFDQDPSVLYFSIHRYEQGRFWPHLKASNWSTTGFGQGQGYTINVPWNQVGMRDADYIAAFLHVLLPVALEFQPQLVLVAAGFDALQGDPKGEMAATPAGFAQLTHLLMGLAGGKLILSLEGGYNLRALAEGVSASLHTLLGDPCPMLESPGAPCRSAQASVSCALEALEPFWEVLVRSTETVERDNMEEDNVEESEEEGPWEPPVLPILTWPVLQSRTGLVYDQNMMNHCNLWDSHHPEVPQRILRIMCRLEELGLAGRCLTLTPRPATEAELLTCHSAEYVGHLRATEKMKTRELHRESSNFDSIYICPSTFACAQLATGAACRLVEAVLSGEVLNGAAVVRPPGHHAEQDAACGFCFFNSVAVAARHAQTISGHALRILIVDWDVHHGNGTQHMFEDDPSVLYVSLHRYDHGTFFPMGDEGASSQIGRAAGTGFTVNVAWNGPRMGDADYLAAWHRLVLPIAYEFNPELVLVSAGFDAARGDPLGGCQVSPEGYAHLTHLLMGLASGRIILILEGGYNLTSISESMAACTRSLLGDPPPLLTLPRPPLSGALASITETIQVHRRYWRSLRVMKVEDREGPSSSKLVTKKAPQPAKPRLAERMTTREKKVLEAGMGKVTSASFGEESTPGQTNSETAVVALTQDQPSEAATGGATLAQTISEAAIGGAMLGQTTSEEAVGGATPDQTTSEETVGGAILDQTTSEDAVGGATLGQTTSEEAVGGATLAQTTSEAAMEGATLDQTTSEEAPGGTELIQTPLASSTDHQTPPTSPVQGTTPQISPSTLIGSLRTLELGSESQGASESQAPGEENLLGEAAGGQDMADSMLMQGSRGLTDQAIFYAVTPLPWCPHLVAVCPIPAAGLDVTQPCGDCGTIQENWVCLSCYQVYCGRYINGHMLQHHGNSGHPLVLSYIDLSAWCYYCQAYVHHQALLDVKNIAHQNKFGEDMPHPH
# [6] = target: Histone deacetylase 4 (Homo sapiens, UniProt P56524); test: Inhibition of human recombinant HDAC4
# [7] = target: T4, Histone deacetylase 11 (Homo sapiens, UniProt Q96DB2); test: Inhibition of human recombinant HDAC11
# T4 sequence (Q96DB2 whole entry): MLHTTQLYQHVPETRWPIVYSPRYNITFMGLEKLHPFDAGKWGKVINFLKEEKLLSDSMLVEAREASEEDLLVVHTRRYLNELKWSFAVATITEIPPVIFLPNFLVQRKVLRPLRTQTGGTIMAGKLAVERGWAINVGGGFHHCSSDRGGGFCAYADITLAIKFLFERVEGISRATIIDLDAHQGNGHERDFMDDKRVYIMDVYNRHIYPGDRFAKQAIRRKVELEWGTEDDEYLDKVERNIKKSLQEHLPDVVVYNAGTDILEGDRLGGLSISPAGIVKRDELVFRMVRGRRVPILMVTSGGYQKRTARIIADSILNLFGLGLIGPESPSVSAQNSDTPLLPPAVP
# [8] = target: Histone deacetylase 5 (Homo sapiens, UniProt Q9UQL6); test: Inhibition of human recombinant HDAC5
# [9] = target: Histone deacetylase; format: cell-based, Homo sapiens; conditions: hela
# [10] = target: T5, Histone deacetylase 1 (Homo sapiens, UniProt Q13547); test: Inhibition of HDAC1 (unknown origin); conditions: pooled result: one value given for 7 cell lines, strains, targets or settings
# [11] = target: Histone deacetylase 3 (Homo sapiens, UniProt O15379); test: Inhibition of human recombinant HDAC3
# [12] = target: Histone deacetylase 2 (Homo sapiens, UniProt Q92769)
# [13] = target: T6, Histone deacetylase 7 (Homo sapiens, UniProt Q8WUI4); test: Inhibition of human recombinant HDAC7
# T6 sequence (Q8WUI4 whole entry): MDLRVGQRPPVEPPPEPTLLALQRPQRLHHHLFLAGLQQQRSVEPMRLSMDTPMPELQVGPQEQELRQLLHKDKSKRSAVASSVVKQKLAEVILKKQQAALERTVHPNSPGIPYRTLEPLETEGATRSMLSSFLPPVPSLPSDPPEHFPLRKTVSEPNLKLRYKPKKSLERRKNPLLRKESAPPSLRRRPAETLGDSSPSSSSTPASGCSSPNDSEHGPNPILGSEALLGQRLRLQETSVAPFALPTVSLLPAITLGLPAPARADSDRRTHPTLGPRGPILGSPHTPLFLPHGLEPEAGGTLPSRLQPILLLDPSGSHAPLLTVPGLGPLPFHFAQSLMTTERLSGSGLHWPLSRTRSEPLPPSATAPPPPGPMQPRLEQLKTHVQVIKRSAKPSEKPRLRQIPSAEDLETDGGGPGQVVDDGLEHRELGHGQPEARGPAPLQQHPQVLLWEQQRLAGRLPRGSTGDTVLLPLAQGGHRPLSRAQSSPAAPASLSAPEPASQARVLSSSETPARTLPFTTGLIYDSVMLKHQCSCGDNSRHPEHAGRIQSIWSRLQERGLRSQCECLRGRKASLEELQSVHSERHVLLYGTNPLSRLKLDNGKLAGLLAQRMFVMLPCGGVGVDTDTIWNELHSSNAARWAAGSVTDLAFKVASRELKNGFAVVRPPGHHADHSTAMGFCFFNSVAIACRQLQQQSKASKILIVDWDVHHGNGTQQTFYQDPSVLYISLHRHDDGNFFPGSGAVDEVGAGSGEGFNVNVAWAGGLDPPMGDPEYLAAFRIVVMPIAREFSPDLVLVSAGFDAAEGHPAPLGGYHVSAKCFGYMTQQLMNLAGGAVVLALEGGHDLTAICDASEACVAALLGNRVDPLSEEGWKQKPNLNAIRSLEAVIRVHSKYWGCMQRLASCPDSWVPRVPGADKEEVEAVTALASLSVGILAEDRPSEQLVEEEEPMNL
# [14] = target: Histone deacetylase; test: Inhibition of HDAC (unknown origin); format: protein assay, Homo sapiens
# [15] = Antiproliferative activity against human HC-04 cells assessed as cell growth inhibition measured after 72 hrs by MTT assay; format: functional, cell-based; conditions: HC04, 72 h
# [16] = test system: HRT-18 cell line; test: Antiproliferative activity against human HRT-18 cell line assessed as cell growth inhibition measured after 72 hrs by MTT assay; format: functional, cell-based; conditions: HRT-18, 72 h
# [17] = test system: HBL-100; test: Cytotoxicity against human HBL-100 cells assessed as cell growth inhibition; format: toxicity, cell-based
# [18] = target: T5, Histone deacetylase 1; test: Inhibition of human recombinant HDAC1
# [19] = test system: Toxoplasma gondii; test: Antiparasitic activity against Toxoplasma gondii assessed as parasitic growth inhibition; format: functional, organism-based
# [20] = Dissociation constant, pKa of the compound; format: physicochemical
# T5 sequence (Q13547 whole entry): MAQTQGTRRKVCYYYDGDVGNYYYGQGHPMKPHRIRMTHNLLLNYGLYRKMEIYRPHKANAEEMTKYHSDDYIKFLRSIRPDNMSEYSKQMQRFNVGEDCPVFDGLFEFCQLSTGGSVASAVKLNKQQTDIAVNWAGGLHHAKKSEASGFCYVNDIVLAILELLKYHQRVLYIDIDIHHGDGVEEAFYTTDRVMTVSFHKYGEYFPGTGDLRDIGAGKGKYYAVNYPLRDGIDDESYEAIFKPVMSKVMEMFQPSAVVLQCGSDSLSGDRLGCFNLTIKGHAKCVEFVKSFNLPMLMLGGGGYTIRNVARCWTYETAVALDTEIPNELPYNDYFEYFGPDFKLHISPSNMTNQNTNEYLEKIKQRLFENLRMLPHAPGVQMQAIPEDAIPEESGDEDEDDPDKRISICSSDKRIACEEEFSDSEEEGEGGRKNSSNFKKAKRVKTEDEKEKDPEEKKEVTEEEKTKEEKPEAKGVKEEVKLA
# Sequence of Histone deacetylase 2 (Q92769 whole entry): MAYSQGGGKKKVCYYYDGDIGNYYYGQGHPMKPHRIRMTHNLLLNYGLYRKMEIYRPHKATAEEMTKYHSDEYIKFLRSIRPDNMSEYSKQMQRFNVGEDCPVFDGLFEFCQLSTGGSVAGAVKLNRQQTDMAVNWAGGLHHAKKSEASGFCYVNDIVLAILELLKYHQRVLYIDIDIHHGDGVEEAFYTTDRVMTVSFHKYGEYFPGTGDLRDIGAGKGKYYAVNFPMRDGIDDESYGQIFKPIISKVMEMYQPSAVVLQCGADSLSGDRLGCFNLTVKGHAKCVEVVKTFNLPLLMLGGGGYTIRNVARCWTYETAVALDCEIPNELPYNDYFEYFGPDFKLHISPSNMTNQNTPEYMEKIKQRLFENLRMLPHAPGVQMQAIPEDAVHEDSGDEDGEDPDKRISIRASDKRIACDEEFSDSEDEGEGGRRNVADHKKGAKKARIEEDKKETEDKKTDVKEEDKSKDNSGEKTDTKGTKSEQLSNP
# Sequence of Histone deacetylase 4 (P56524 whole entry): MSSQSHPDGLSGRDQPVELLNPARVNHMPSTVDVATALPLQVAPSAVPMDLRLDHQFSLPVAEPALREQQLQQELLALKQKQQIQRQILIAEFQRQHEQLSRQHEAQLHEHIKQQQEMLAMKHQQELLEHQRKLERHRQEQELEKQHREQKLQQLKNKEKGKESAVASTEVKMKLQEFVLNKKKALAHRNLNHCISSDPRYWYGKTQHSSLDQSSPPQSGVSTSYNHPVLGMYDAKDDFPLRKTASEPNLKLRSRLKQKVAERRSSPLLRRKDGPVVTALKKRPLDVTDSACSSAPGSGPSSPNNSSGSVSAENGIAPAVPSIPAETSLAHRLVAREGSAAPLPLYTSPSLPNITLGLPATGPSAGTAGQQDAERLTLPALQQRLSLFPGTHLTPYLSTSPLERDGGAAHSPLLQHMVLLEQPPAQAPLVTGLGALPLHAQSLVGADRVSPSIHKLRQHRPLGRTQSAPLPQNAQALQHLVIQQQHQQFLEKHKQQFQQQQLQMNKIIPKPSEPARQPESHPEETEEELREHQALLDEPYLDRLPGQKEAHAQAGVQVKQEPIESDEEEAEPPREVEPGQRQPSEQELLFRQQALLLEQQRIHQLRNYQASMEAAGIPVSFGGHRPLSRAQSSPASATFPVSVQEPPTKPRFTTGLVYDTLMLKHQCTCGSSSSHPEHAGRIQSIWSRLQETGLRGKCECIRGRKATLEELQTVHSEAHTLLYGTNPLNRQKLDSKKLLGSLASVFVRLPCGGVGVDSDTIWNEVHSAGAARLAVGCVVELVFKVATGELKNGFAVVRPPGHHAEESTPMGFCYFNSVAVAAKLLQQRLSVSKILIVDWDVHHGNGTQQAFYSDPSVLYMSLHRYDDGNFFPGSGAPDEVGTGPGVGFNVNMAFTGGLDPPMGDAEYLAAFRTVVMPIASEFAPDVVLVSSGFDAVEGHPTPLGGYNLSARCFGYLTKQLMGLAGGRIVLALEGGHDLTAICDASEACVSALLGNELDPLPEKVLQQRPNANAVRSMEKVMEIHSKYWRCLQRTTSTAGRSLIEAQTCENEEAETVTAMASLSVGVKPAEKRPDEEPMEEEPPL
# Sequence of Histone deacetylase 5 (Q9UQL6 whole entry): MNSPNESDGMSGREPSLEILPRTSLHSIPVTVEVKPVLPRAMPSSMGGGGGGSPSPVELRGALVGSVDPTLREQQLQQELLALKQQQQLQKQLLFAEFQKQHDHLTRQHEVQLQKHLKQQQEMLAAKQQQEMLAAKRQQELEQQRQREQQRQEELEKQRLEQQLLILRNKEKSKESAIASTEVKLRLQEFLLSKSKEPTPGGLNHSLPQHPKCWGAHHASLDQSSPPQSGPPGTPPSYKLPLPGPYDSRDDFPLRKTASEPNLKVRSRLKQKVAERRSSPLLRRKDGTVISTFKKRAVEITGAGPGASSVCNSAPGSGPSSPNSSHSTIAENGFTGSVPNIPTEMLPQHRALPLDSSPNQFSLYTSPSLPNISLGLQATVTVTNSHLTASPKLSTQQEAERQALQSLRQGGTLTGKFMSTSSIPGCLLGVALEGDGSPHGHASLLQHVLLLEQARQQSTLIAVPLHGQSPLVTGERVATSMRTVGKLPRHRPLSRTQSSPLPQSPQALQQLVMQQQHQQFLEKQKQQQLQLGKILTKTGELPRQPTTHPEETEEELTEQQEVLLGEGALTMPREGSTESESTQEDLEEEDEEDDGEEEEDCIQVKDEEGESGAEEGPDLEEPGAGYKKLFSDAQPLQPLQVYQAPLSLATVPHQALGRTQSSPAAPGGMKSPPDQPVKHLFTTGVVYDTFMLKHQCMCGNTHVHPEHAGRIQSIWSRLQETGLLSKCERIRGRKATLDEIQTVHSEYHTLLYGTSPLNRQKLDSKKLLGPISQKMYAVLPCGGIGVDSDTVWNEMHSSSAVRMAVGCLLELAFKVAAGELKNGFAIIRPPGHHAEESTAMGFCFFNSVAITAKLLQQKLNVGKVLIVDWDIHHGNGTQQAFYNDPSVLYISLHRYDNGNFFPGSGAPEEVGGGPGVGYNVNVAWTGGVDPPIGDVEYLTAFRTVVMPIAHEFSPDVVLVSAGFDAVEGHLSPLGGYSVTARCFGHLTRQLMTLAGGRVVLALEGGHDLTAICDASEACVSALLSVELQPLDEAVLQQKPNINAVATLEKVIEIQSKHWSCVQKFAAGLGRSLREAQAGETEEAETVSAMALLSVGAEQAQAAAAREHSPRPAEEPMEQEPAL
# Sequence of Histone deacetylase 3 (O15379 whole entry): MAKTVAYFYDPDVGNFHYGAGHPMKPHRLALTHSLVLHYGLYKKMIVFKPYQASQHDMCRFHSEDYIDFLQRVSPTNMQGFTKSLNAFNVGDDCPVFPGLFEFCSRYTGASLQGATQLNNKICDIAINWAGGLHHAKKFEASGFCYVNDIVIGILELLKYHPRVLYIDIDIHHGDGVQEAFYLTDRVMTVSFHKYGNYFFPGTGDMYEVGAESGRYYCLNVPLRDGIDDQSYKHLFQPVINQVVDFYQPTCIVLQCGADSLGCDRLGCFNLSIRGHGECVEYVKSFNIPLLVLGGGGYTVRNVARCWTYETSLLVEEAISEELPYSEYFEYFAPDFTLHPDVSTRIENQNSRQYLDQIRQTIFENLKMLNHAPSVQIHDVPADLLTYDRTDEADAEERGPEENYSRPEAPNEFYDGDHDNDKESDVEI
# Sequence of Histone deacetylase 9 (Q9UKV0 whole entry): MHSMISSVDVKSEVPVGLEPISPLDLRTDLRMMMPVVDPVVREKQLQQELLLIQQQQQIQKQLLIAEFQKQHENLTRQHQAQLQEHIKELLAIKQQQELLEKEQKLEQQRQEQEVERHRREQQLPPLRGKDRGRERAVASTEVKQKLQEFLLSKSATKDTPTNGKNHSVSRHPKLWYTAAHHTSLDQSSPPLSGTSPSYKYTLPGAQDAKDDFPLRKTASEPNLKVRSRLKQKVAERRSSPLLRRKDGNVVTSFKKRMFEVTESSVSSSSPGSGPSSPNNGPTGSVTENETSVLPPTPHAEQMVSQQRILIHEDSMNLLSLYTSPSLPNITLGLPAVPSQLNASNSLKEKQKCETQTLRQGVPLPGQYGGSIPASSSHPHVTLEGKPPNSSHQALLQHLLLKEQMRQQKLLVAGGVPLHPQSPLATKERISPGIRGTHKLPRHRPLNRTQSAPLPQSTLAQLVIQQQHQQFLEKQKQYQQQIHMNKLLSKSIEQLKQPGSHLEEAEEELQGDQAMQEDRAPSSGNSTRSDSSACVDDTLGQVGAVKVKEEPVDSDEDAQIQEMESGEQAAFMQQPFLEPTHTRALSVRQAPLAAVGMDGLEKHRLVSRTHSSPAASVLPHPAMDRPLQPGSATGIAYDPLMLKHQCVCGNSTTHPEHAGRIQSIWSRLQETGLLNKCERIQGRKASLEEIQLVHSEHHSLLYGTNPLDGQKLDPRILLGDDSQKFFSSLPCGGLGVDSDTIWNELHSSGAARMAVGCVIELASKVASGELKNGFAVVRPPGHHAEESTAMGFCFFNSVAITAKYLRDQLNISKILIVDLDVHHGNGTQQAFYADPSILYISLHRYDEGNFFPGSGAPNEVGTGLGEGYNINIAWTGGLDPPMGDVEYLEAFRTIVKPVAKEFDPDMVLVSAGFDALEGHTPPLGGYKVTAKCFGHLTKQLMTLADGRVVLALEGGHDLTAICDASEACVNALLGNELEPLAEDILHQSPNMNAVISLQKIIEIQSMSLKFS
compound,measurement,setting,value
CNC(=O)C(=O)CCCCCCOc1ccc(-c2ccccc2)cc1,IC50,[1],0.11 µM
O=C(O)CNC(=O)C(=O)CCCCCCOc1ccc(-c2ccccc2)cc1,IC50,[1],> 50 µM
NC(=O)C(=O)CCCCCCOc1ccc(-c2ccccc2)cc1,IC50,[1],> 50 µM
O=C(CCCCCCC(=O)C(F)(F)F)Nc1ccccc1,IC50,[2],19 µM
same,IC50,[3],5.9 µM
same,IC50,[4],1.7 µM
same,IC50,[5],2.2 µM
same,IC50,[6],0.04 µM
same,IC50,[7],100 µM
same,IC50,[8],0.04 µM
CN(C)C(=O)C(=O)CCCCCCOc1ccc(-c2ccccc2)cc1,IC50,[1],> 5 µM
O=C(CCCCCCNCCS)Nc1ccccc1,IC50,[9],> 100 µM
COc1cccc(NC(=O)CCCCCC(=O)Nc2ccccc2)c1,IC50,[9],> 1000 µM
CNC(=O)/C(CCCCCCC(=O)Nc1ccccc1)=N\O,IC50,[10],22 µM
O=C(CO)NCCCCCC(=O)Nc1ccccc1,IC50,[9],> 100 µM
CN(C)CCNC(=O)C(=O)CCCCCCOc1ccc(-c2ccccc2)cc1,IC50,[1],> 50 µM
CCNC(=O)C(=O)CCCCCCOc1ccc(-c2ccccc2)cc1,IC50,[1],4.9 µM
NCC(=O)NCCCCCC(=O)Nc1ccccc1,IC50,[9],> 100 µM
C[Si](O)(O)CCCCCCC(=O)Nc1ccccc1,IC50,[2],5 µM
same,IC50,[11],0.6 µM
same,IC50,[4],27 µM
same,IC50,[5],18 µM
same,IC50,[12],6 µM
same,IC50,[6],> 100 µM
same,IC50,[7],57 µM
same,IC50,[13],> 100 µM
same,IC50,[8],> 100 µM
C[C@@H](O)C(=O)CCCCCCC(=O)Nc1ccccc1,IC50,[14],> 33 µM
same,IC50,[9],8.9 µM
same,IC50,[5],> 300 µM
C[C@H](O)C(=O)CCCCCCC(=O)Nc1ccccc1,IC50,[9],77.1 µM
same,IC50,[5],> 300 µM
NC(=S)NC(=O)CCCCCC(=O)Nc1ccccc1,IC50,[15],24.1 µM
same,IC50,[16],24.1 µM
same,inhibition (INH),[17],< 12%
C[S+]([O-])CCCCCCC(=O)Nc1ccccc1 (centres undefined),IC50,[9],48 µM
O=C(CCCCCCOP(=O)([O-])[O-])Nc1ccccc1.[K+].[K+],IC50,[9],3900 µM
NC(=S)NC(=O)CCCCC(=O)Nc1ccccc1,IC50,[15],30.4 µM
same,IC50,[16],30.4 µM
same,inhibition (INH),[17],< 12%
O=C(CCCCNP(=O)([O-])[O-])Nc1ccccc1.[K+].[K+],IC50,[9],360 µM
CCN(CC)C(=S)SSCCCCCC(=O)Nc1ccccc1,IC50,[2],0.14 µM
same,IC50,[18],0.046 µM
same,IC50,[9],0.7 µM
same,IC50,[5],0.068 µM
same,IC50,[12],0.18 µM
C=C1N[C@@](C)(CC)C(=O)N[C@@H](Cc2ccccc2)C(=O)N2C[C@@H](C)C[C@@H]2C(=O)N[C@H]1CCCCCC(=O)[C@@H](C)O,IC50,[19],0.0286 µM
O=C(c1ccc(C(=O)C(F)(F)C(F)(F)F)s1)N1CCc2ccccc21,IC50,[11],2.9 µM
same,IC50,[18],4.2 µM
CCC(=O)CCCCCCC(=O)Nc1ccccc1,IC50,[9],> 100 µM
same,IC50,[5],> 300 µM
O=C(CCCCCOP(=O)([O-])[O-])Nc1ccccc1.[K+].[K+],IC50,[9],60 µM
O=C(CCCCOP(=O)([O-])[O-])Nc1ccccc1.[K+].[K+],IC50,[9],2200 µM
O=C(CCCCCNP(=O)([O-])[O-])Nc1ccccc1.[K+].[K+],IC50,[9],70 µM
O=C(CCCCCOP([O-])([O-])=S)Nc1ccccc1.[K+].[K+],IC50,[9],50 µM
O=C(CCCCCCNP(=O)([O-])[O-])Nc1ccccc1.[K+].[K+],IC50,[9],490 µM
CC(=O)O[C@H](C)C(=O)CCCCCCC(=O)Nc1ccccc1,IC50,[9],63.8 µM
same,IC50,[5],> 300 µM
O=C(CCCCCCC(=O)Nc1ccccc1)NO [VORINOSTAT],pKa,[20],9.4
